# Square brackets hold non-standard residues; d marks the D form. Peptide text beside a SMILES is read from it. * marks the point of attachment. Sta = CC(C)C[C@H](N)[C@@H](O)CC(=O)O; Isovaleryl = CC(C)CC(=O)*
# Columns and labels:
# APP-degrading protease = assay: Assay of APP-degrading protease (Zn^2+-enhanced degradation of plasma 130 kDa APP); format: biochemical, human
# PC12 cells = assay: Effect of extracellular zinc on cultured PC12 cells (APP by Western blot); format: cell-based; details: 48 hr
# Method: 10^6 PC12 cells were plated for 24 hr in the presence of Dulbecco's modified Eagle's medium (DMEM, N2) supplemented with 8% fetal calf serum (FCS). The medium was then removed and replaced with DMEM±2 to 50 μM ZnCl2 or another salt, and no FCS. Cells and media were harvested 48 hr later and aliquots of media, cell cytosol and membrane (following lysis and ultracentrifugation) were assayed for APP by Western blotting with mAb 22C11.
# [1] = test system: human brain 130/110 kDa APP; assay: ^65Zn binding to human brain 130/110 kDa APP (time course, competition, Scatchard); details: for ^65Zn label competed off APP (of Bmax): unlabelled metal ion at 20 μM; for shift of competition curve relative to the Zn^2+ competition curve: competition for ^65Zn binding
# Source text: FIG. 4 is a graphical representation showing a time course analysis of ^65Zn binding to human brain 130/110 kDa APP. Amyloid protein precursor (APP) was purified according to the method in Moir et al. (1992). The preparation of purified 130 and 110 kDa APP was derived from human brain membrane extracts and contained the full-length precursor with carboxyl terminus intact but lacked the 17 residue signal peptide. The 130 and 110 kDa proteins were apparent in equal ratios on silver staining following polyacrylamide gel electrophoresis and were the only bands visible. The identity of these two proteins was confirmed by Western blots with monoclonal antibody 22C11 (which recognises an amino terminal epitope on APP), and by amino terminal sequencing. The protein concentration of the APP preparation was determined by amino acid analysis. Aliquots of APP (90 ng, =1.1 pmole, assuming the average amino acid formula weight of APP is =80 kDa) were incubated at 20° C. for the times indicated. Incubations (50 μl) were performed in 150 mM NaCl, 50 mM Tris-Hcl, pH 7.4 in the presence of 10^6 cpm of ^65Zn (175 nM). The incubation solution was then applied to a 1.1 ml bed volume Sephadex G25 (Pharmacia, Uppsala, Sweden) column pre-equilibrated with 150 mM NaCl, 50 mM Tris-HCl, pH 7.4 and allowed to settle before being desalted with 645 μl of the Equilibration buffer. […] The desalted protein was collected directly into counting tubes containing 10 ml aqueous counting scintillant. Less than two minutes was required to complete the desalting. The amount of ^65Zn bound to desalted APP was determined by counting the collected sample in a beta-counter set to the broadest channel. Counting was determined to be 51% efficient. The values shown are means±SD of n≧3 readings.
# FIG. 5 is a graphical representation showing a competition analysis of ^65Zn binding to human brain 130/110 kDa APP. Aliquots of APP were incubated for 30 minutes with ^65Zn as in FIG. 4. The binding of the labelled Zn^2+ to APP was subjected to competition with unlabelled Zn^2+ in the form of the chloride salt. Data shown indicate the competition curves generated at pH 6.4 and 7.4. The binding of Zn^2+ to APP deteriorated at the lower pH (=45% of Bmax, pH 7.4). The values are means±SEM of n≧3 readings. The curves illustrated are typical of three experiments.
# FIG. 6 is a graphical representation depicting a Scatchard analysis of ^65Zn binding to human brain 130/110 kDa APP.
# Binding analysis was performed as follows: Aliquots of APP (90 ng, =1.1 pmole, assuming the average amino acid formula mass of APP is =80 kDa) were incubated at 20° C. Incubations (50 μl) were performed in 150 mM NaCl, 50 mM Tris-HCl, pH 7.4 in the presence of 10^6 CPM of ^65Zn (175 nM). The incubation solution was then applied to a 1.1 ml bed volume Sephadex G25 (Pharmacia, Uppsala, Sweden) column pre-equilibrated with 150 mM NaCl, 50 mM Tris-HCl, pH 7.4 and allowed to settle before being desalted with 645 μl of the equilibration buffer. […] The deslated protein was collected directly into counting tubes containing 10 ml aqueous counting scintillant (ACSII, Amersham). Less than two minutes was required to complete the desalting. The amount of ^65Zn bound to desalted APP was determined by counting the collected sample in a beta-counter set to the broadest channel. Counting was determined to be 51% efficient. The binding of the labelled Zn^2+ to APP was subjected to competition with unlabelled Zn^2+ and other metal chloride salts.
# [2] = test system: human brain full-length APP; assay: ^125I-APP binding to heparin-Sepharose; details: for effect on profile of ^125I-APP elution from heparin-Sepharose: Co^2+ at 75 μM
# Method: 100 kDa human brian full-length APP was iodinated by the Chloramine-T method. Iodinated APP (^125I-APP) was then separated from labelling reagents by Sephacryl G25 chromatography.
# The column was then washed with 6 ml buffer 1 and the APP eluted with aliquots of high-NaCl buffers.
# [3] = dot-blot ^65Zn^2+ binding to synthetic peptides (putative zinc-binding domain of APP); details: for ability to bind ^65Zn^2+: 16 μg peptide dot-blotted
# Method: 16 μg of the synthesized peptide […], representing residues 181-214 of APP695 (or residues 181-200), or 16 μg of control peptide, was dissolved in 200 μl of blocking buffer (50 mM Tris-HCl, 1 mM MnCl2 10 mM β-mercaptoethanol, 20% methanol, pH 7.4) and dot-blotted onto PVDF (Immobilon-P, Millipore, Befored, Mass.) which had been pre-wetted with methanol. The blot was then incubated for 30 mins at 20° C. with 100,000 CPM of ^65Zn^2+ in blocking buffer, in the presence or absence of various concentrations of competing unlabeled Zn^2+ or other divalent cations. After incubation the dot-blot was washed three times with 200 μl of blocking buffer without MnCl2, the dot was excised and placed in 10 ml of scintillant and assayed by β-counting.
# [4] = test system: human brain membrane-derived APP; assay: trypsin digestion of human brain membrane-derived APP, Western blot with 22C11; format: biochemical
# Source text: The proteolytic activity of trypsin (Boehringer, Mannheim) was studied to determine whether it was modulated by a range of doses of heparin (Sigma) and ZnCl2. […] Western blots for APP using the APP binding monoclonal antibody 22C11 were used to monitor the progression of the proteolytic reaction and to detect breakdown products.
# trypsin = assay: tryptic activity on fluorogenic substrate Z-F-R-AMC; format: biochemical; details: range of doses
# [5] = young adult control preparation, two hours at 37° C., 20 μM ZnCl2
# Sequence of human brain membrane-derived APP (P05067 18-288 limits assumed): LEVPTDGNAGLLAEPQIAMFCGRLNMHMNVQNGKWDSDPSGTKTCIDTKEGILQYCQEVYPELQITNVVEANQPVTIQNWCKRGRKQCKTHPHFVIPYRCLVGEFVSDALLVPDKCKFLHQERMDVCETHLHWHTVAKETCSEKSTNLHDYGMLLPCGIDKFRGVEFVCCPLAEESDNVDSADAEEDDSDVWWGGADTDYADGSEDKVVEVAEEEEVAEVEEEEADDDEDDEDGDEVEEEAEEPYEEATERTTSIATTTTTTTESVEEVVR
molecule,measurement,setting,value
"[Cl][Al]([Cl])[Cl] [Al3Cl, reference compound]",influence on Zn^2+-enhanced APP proteolysis,APP-degrading protease; [5],"Neither Al3Cl, the cysteine-protease inhibitor N-ethyl maleimide, nor the acid-protease inhibitor pepstatin A influenced the reaction"
same,effect on APP released into the media compared with zinc,PC12 cells,far smaller stimulatory effects
[Cl][Al]([Cl])[Cl] [Al^3+],^65Zn label competed off APP (of Bmax),[1],60%
same,increase in ^125I-APP recovery in the 500-2000 mM NaCl fraction,[2],approximately 4.5 fold
same,effect on profile of ^125I-APP elution from heparin-Sepharose,[2],decreased the recovery of ^125I-APP except in the 500-2000 mM NaCl fraction
"[Ca+2].[Cl-].[Cl-] [Ca^2+, reference compound]",shift of competition curve relative to the Zn^2+ competition curve,[1],shifted greater than two log units to the right
same,effect on profile of ^125I-APP elution from heparin-Sepharose,[2],did not alter the profile of ^125I-APP elution
"[Co+2] [Co^2+, reference compound]",^65Zn label competed off APP (of Bmax),[1],70%
same,effect on profile of ^125I-APP elution from heparin-Sepharose,[2],increased the recovery of ^125I-APP in the 100-500 and 500-2000 mM NaCl fractions
"[Cu+2] [Cu^2+, reference compound]",^65Zn label competed off APP (of Bmax),[1],60%
"O=C(O)CN(CCN(CC(=O)O)CC(=O)O)CC(=O)O [EDTA, ethylene diamine tetra acetic acid]",influence on Zn^2+-enhanced APP proteolysis,APP-degrading protease; [5],completely inhibited
"[Cl][Fe][Cl] [FeCl2, reference compound]",effect on APP released into the media compared with zinc,PC12 cells,had a similar effect
"[Cl-].[Cl-].[Mg+2] [Mg^2+, reference compound]",shift of competition curve relative to the Zn^2+ competition curve,[1],shifted greater than two log units to the right
same,effect on profile of ^125I-APP elution from heparin-Sepharose,[2],did not alter the profile of ^125I-APP elution
"CCN1C(=O)C=CC1=O [N-ethyl maleimide, N-ethylmaleimide]",influence on Zn^2+-enhanced APP proteolysis,APP-degrading protease; [5],"Neither Al3Cl, the cysteine-protease inhibitor N-ethyl maleimide, nor the acid-protease inhibitor pepstatin A influenced the reaction"
"[Cl][Cu] [cuprous chloride, reference compound]",effect on APP released into the media compared with zinc,PC12 cells,far smaller stimulatory effects
CC(C)CC(=O)N[C@H](C(=O)N[C@H](C(=O)N[C@@H](CC(C)C)[C@@H](O)CC(=O)N[C@@H](C)C(=O)N[C@@H](CC(C)C)[C@@H](O)CC(=O)O)C(C)C)C(C)C [pepstatin A] (Isovaleryl-VV[Sta]A[Sta]-OH),influence on Zn^2+-enhanced APP proteolysis,APP-degrading protease; […],"Neither Al3Cl, the cysteine-protease inhibitor N-ethyl maleimide, nor the acid-protease inhibitor pepstatin A influenced the reaction"
GVEFVCCPLAEESDNVDSADAEEDDSDVWWGGAD [residues 181-214 of APP],ability to bind ^65Zn^2+,[3],able to bind Zn^2+ in a saturable and specific manner
Insulin A chain: control peptide,ability to bind ^65Zn^2+,[3],unable to bind Zn^2+
Insulin B chain: positive control,ability to bind ^65Zn^2+,[3],bound ^65Zn^2+
aprotinin,influence on Zn^2+-enhanced APP proteolysis,APP-degrading protease; [5],completely inhibited
carboxyamidomethylated 181-214 peptide: the 181-214 peptide where the cysteines had been modified by carboxyamidomethylation,amount of ^65Zn^2+ binding relative to same quantity of 181-214 peptide,[3],approximately 15%
heparin [reference compound],influence on Zn^2+-enhanced APP proteolysis,APP-degrading protease; [5],completely inhibited
same,concentration at which protective effect saturated,[4],10 µM
same,heparin concentration causing marked reduction in rate and degree of brain APP degradation by trypsin,"[4]; trypsin 1:64, one hour at 37° C.",100 nM
same,effect on tryptic activity,trypsin,left tryptic activity unaltered
renin,ability to bind ^65Zn^2+,[3],unable to bind Zn^2+
"residues 181-200 of APP: synthetic peptide representing about residues 181-200 of APP (SADAEEDDSDVWWGGADTDY; UniProt P05067 198-217, looked up, fragment)",ability to bind ^65Zn^2+,[3],bind zinc in a specific and saturable manner
"residues 189-220 of APP695: synthetic peptide lacking the cysteine residues at positions 186/187 (LAEESDNVDSADAEEDDSDVWWGGADTDYADG; APP695; UniProt P05067 189-220, looked up, fragment)",amount of ^65Zn^2+ binding relative to same quantity of 181-214 peptide,[3],approximately 15%
"residues 422-433: peptide representing another region of the APP molecule (VESLEQEAANER; UniProt P05067 439-450, looked up, fragment)",ability to bind ^65Zn^2+,[3],unable to bind Zn^2+
"residues 581-601: peptide representing another region of the APP molecule (TETKTTVELLPVNGEFSLDDL; UniProt P05067 598-618, looked up, fragment)",ability to bind ^65Zn^2+,[3],unable to bind Zn^2+
"residues 645-655: peptide representing another region of the APP molecule (KTEEISEVKMD; UniProt P05067 662-672, looked up, fragment)",ability to bind ^65Zn^2+,[3],unable to bind Zn^2+
"soya bean trypsin inhibitor (protein, UniProt P01070 25-205, looked up) Trypsin inhibitor A: DFVLDNEGNPLENGGTYYILSDITAFGGIRAAPTGNERCPLTVVQSRNELDKGIGTIISSPYRIRFIAEGHPLSLKFDSFAVIMLCVGIPTEWSVVEDLPEGPAVKIGENKDAMDGWFRLERVSDDEFNNYKLVFCPQQAEDDKCGDIGISIDHDDGTRRLVVSKNKPLVVQFQKLDKESL",influence on Zn^2+-enhanced APP proteolysis,APP-degrading protease; [5],completely inhibited
"α1-antichymotrypsin (protein, UniProt P01011 24-423, looked up) Alpha-1-antichymotrypsin: HPNSPLDEENLTQENQDRGTHVDLGLASANVDFAFSLYKQLVLKAPDKNVIFSPLSISTALAFLSLGAHNTTLTEILKGLKFNLTETSEAEIHQSFQHLLRTLNQSSDELQLSMGNAMFVKEQLSLLDRFTEDAKRLYGSEAFATDFQDSAAAKKLINDYVKNGTRGKITDLIKDLDSQTMMVLVNYIFFKAKWEMPFDPQDTHQSRFYLSKKKWVMVPMMSLHHLTIPYFRDEELSCTVVELKYTGNASALFILPDQDKMEEVEAMLLPETLKRWRDSLEFREIGELYLPKFSISRDYNLNDILLQLGIEEAFTSKADLSGITGARNLAVSQVVHKAVLDVFEEGTEASAATAVKITLLSALVETRTIVRFNRPFLMIIVPTDTQNIFFMSKVTNPKQA",influence on Zn^2+-enhanced APP proteolysis,APP-degrading protease; [5],incompletely inhibited

# Reference: patent US20040265847A1, “Method for treating Alzheimer's disease” (priority 1991, published 2004)
